Test results reported in patent US20260115250A1, “METHODS OF TREATING AGE-RELATED MACULAR DEGENERATION” (Character Biosciences, Inc., priority 2022, published 2026).

Legend:
HMC3 cells = assay: HMC3 cholesterol efflux; format: cell-based, human; settings: HMC3, 20 μM peptide, 4 hours
Description: (§1) FIGS. 27A-27B and FIG. 28 illustrate HMC3 cholesterol efflux. Fully confluent 96-well plates of HMC3 cells were treated for 1 hour in serum-free EMEM containing 10 mM methyl-β-cyclodextrin, 100 μM cholesterol, and 25 μM BODIPY cholesterol. Cells were then washed and incubated overnight in serum free EMEM containing 1 μM LXR agonist GW3965, 2 μg/mL ACAT inhibitor, and 0.2% BSA (LXR Agonist treated), or serum-free EMEM containing 2 μg/mL ACAT inhibitor, and 0.2% BSA (Control). Cells were washed and incubated with 20 μM peptides diluted in serum-free Fluorobrite DMEM for 4 hours at 37° C. Media was transferred to a new 96-well plate and fresh serum-free Fluorobrite DMEM was placed on the cells. Media and cellular fluorescence were read on a Promega GloMax at 475 nm excitation, 500-550 emission. Fluorescence values were background corrected from no treatment conditions and percent efflux was calculated by the following equation: % efflux=(Media Fluorescence values)/(Media+Cell Fluorescence values). Data are presented as mean+SD over two runs per peptide.
as §1, with “FIGS. 30A-30J show” for “FIGS. 27A-27B and FIG. 28 illustrate”, “cholesterol efflux titration curves for the indicated peptides.” for “cholesterol efflux.”, “μM” for “μM LXR agonist”, “or serum free” for “or serum-free”, “with 0-100” for “with 20”, “peptides serially” for “peptides”

ABCA1 = molecular target: T1, ABCA1 (Homo sapiens, UniProt O95477); assay: membrane ABCA1 stability testing in ARPE-19 cells treated with mCRP; format: cell-based; settings: ARPE-19, mCRP, 20 μM peptide, 24 hours
T1 construct: endogenous in cells; host or cells: ARPE-19
T1 sequence (O95477 whole entry): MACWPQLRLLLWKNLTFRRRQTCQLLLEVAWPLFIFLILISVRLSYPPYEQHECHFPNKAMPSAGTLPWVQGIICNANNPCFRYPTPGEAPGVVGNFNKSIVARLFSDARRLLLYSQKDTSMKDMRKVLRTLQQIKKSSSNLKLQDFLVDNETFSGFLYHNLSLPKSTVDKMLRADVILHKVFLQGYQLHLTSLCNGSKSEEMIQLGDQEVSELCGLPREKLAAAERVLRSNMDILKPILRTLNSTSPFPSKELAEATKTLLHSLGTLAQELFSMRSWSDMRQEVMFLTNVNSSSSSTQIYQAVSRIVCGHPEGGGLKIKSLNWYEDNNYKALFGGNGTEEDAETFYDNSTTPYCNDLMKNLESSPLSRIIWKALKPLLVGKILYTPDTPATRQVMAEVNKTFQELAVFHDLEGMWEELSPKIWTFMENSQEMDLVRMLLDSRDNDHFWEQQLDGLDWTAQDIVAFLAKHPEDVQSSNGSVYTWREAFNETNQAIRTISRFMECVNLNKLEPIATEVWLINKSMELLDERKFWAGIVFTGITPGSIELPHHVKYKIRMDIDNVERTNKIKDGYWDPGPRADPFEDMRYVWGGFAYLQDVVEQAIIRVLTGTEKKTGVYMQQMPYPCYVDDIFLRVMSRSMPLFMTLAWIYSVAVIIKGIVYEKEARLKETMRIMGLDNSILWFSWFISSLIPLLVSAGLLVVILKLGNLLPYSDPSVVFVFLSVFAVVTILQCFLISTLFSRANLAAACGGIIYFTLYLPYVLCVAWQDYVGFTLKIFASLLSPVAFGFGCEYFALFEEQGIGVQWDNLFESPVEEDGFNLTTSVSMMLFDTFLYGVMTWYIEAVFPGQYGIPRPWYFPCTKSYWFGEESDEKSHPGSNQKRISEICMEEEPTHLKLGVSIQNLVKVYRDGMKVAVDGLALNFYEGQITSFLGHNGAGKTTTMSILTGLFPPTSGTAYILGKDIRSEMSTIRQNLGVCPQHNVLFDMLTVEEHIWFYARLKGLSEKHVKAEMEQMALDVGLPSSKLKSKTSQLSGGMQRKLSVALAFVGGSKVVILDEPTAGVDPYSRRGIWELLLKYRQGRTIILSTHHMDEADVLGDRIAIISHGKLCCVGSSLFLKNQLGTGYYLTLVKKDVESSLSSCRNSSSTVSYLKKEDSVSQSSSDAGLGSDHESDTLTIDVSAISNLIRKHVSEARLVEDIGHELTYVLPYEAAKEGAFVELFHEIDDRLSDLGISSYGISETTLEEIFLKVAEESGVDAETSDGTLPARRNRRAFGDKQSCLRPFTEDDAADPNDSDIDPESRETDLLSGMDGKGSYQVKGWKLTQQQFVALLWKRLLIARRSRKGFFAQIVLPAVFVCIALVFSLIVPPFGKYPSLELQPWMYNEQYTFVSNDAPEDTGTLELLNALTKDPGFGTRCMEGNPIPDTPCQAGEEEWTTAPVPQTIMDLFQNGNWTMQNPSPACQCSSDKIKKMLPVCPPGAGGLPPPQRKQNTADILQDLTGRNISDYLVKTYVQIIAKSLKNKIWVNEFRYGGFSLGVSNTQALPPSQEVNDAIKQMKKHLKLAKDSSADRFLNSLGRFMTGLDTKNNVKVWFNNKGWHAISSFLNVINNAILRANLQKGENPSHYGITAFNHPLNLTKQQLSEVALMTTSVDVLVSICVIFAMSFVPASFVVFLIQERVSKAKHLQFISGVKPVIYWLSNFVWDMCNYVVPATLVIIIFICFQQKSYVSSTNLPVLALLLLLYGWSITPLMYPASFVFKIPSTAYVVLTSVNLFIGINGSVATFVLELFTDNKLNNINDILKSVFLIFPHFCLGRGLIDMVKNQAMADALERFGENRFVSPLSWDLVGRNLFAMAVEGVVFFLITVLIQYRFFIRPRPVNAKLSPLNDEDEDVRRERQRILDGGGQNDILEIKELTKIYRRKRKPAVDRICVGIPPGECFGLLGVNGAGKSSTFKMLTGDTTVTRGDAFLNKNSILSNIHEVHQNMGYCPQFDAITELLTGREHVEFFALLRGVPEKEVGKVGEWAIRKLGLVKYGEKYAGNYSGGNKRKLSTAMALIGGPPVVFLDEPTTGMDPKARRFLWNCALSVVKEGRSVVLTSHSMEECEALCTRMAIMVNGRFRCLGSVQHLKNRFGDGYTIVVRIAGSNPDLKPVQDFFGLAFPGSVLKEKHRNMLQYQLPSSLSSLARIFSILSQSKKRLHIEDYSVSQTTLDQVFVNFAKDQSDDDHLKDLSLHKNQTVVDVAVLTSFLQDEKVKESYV
Description: ARPE-19 cells were seeded at 100,000 cells per well on 12-well plates and were allowed to grow to confluence. To prepare monomeric CRP (mCRP), recombinant CRP was prepared in a PBS solution containing 8 M Urea and 10 mM EDTA and incubated at 37° C. for 2 hours prior to desalting with a Zeba spin column (7K MW cutoff). mCRP was prepared to a 2× solution of 20 μg/mL. A 2× solution of 40 μM peptides was prepared in serum-free DMEM and serially diluted 1:2 over 4 concentrations. mCRP and peptides were added 1:1 to cells for 24 hours at 37° C. before isolating membrane protein and measuring membrane ABCA1 levels by western blot. Blots were quantified in ImageJ. Signals were further normalized to the LXR agonist treated group to determine percent (%) ABCA1 remaining. Treatment with LXR agonist increased membrane ABCA1 levels in this assay, but following treatment with mCRP, membrane ABCA1 levels were decreased.
FIGS. 35 and 36 show membrane ABCA1 stability testing using ARPE-19 cells. ARPE-19 cells were seeded at 100,000 cells per well on 12-well plates and were allowed to grow to confluence. To prepare monomeric CRP (mCRP), recombinant CRP was prepared in a PBS solution containing 8 M Urea and 10 mM EDTA and incubated at 37° C. for 2 hours prior to desalting with a Zeba spin column (7K MW cutoff). mCRP was prepared to a 2× solution of 20 μg/mL. A 2× solution of 40 μM peptides was prepared in serum-free DMEM. CRP and peptides were added 1:1 to cells for 24 hours at 37° C. before isolating membrane protein and measuring membrane ABCA1 levels by western blot. Blots were quantified in ImageJ. In FIG. 35, Signals were further normalized to the T-087 treated group to determine percent (%) ABCA1 levels compared to peptide T-087 treated cells. In FIG. 36, Signals were further normalized to the peptide T-101 treated group to determine percent (%) ABCA1 levels compared to peptide T-101 treated cells.

[1] = DMPC solubility assay, 0.5 mM DMPC (turbidity reduction); format: biochemical; settings: for DMPC solubilizing activity: FIGS. 2A-2D and 3A-3C; for EC50: 3.16-100 μM peptides, 15 minutes
Description: In this example, peptide stocks were diluted to 200 μM in H2O (a 2× solution) and 50 μL of peptide solution was transferred in triplicate into 96-well plates. A one mM solution of 1,2-dimyristoyl-sn-glycero-3-phosphocholine (DMPC) in H2O was prepared, and using a multichannel pipet, 50 μL DMPC solution was rapidly added to the plate. Peptide and lipid solutions were incubated at room temperature for 15 minutes with a final concentration of 100 μM peptides and 0.5 mM DMPC. After 15 minutes, absorbance was read on a plate reader at 405 nm. […] Data are presented as mean+SD over two runs.
In these experiments, DMPC solubility titration curves were generated. Peptide stocks were diluted to 200 μM in H2O (a 2× solution) and serially diluted in H2O over 4 concentrations, then 50 μL of peptide solutions were distributed in triplicate into 96-well plates. A 1 mM solution of 1,2-dimyristoyl-sn-glycero-3-phosphocholine (DMPC) in H2O was prepared, and using a multichannel pipet, 50 μL DMPC solution was rapidly added to the plate. Peptide and lipid solutions were incubated at room temperature for 15 minutes with final concentrations of 3.16-100 μM peptides and 0.5 mM DMPC. After 15 minutes, absorbance was read on a plate reader at 405 nm. […] Data are presented as mean+SD over two runs. Non-linear regression was used to calculate EC50 values.

Substance | cholesterol efflux in the presence of LXR agonist (HMC3 cells) | membrane ABCA1 levels compared to peptide T-101 treated cells (ABCA1) | other results
T-151: variant of peptide T-101 (RSGADALESALKELKRFIRAAA) | greater cholesterol efflux |  | 
T-124: variant of peptide T-101 (RSGPDALESALKELKRFIREWT) | greater cholesterol efflux | reduction of membrane ABCA1 levels | 
T-026: therapeutic peptide (GFGDWIDSIEAFSRSLHS) |  |  | DMPC solubilizing activity [1]: significant activity
T-146: variant of peptide T-101 (AAAADALESALKELKRFIREWT) | greater cholesterol efflux |  | 
T-173: variant of peptide T-087 (AAAERFRALFKELADYFR) |  |  | membrane ABCA1 levels compared to peptide T-087 treated cells (ABCA1): reduction of membrane ABCA1 levels
T-135: variant of peptide T-101 (RSGADALESALKELARFIREWT) | greater cholesterol efflux | reduction of membrane ABCA1 levels | 
HLRKLRKRLLRDGDKLSDRLAEYVARAKEAFDR [T-080, therapeutic peptide] |  |  | EC50 [1]: 155 µM
T-024: therapeutic peptide (FEHWISGIYSECKHLIQE) |  |  | DMPC solubilizing activity [1]: significant activity
T-148: variant of peptide T-101 (RSGADALESAAAALKRFIREWT) | greater cholesterol efflux | reduction of membrane ABCA1 levels | 
T-150: variant of peptide T-101 (RSGADALESALKELKRAAAEWT) | greater cholesterol efflux | reduction of membrane ABCA1 levels | 
HLRKLRKRLLRDGDKLQDRLAEYQAGAKEAFDR [T-054, therapeutic peptide] |  |  | EC50 [1]: 123 µM
T-121: variant of peptide T-101 (ASGADALESALKELKRFIREWT) | greater cholesterol efflux | reduction of membrane ABCA1 levels | 
T-134: variant of peptide T-101 (RSGADALESALKEAKRFIREWT) | greater cholesterol efflux | reduction of membrane ABCA1 levels | 
T-005: therapeutic peptide (PLRAELQEGARQKLHELQEKLS) |  |  | DMPC solubilizing activity [1]: did not have significant solubilizing activity
T-017: therapeutic peptide (PLRAELQEGARQKLHELQEKLSPPLRAELQEGARQKLHELQEKLS) |  |  | DMPC solubilizing activity [1]: did not have significant solubilizing activity
T-143: variant of peptide T-101 (RSGGDALESALKELKRFIREWT) | greater cholesterol efflux |  | 

Substance | cholesterol efflux in the presence of LXR agonist (HMC3 cells) | membrane ABCA1 levels compared to peptide T-101 treated cells (ABCA1) | other results
T-127: variant of peptide T-101 (RSGADAAESAAKELKRFIREWT) |  | reduction of membrane ABCA1 levels | 
T-014: therapeutic peptide (EQAQQIRLQAEAFQARLKSWFE) |  |  | DMPC solubilizing activity [1]: significant activity
T-140: variant of peptide T-101 (RSGADALESALKELKRFIRAWT) | greater cholesterol efflux |  | 
T-104: therapeutic peptide (TVRGSADALLEHLTRAWDGFNR) |  | reduction of membrane ABCA1 levels | 
T-141: variant of peptide T-101 (RSGADALESALKELKRFIREAT) | greater cholesterol efflux | reduction of membrane ABCA1 levels | 
T-126: variant of peptide T-101 (RSGADPLESALKELKRFIREWT) | greater cholesterol efflux | reduction of membrane ABCA1 levels | 
T-138: variant of peptide T-101 (RSGADALESALKELKRFAREWT) | greater cholesterol efflux | reduction of membrane ABCA1 levels | 
T-149: variant of peptide T-101 (RSGADALESALKEAAAFIREWT) | greater cholesterol efflux | reduction of membrane ABCA1 levels | 
T-137: variant of peptide T-101 (RSGADALESALKELKRAIREWT) | greater cholesterol efflux | reduction of membrane ABCA1 levels | 
T-128: variant of peptide T-101 (RSGADALASALKELKRFIREWT) | greater cholesterol efflux | reduction of membrane ABCA1 levels | 
T-177: variant of peptide T-087 (DAWERFRALFKEAAAYFR) |  |  | membrane ABCA1 levels compared to peptide T-087 treated cells (ABCA1): reduction of membrane ABCA1 levels
T-142: variant of peptide T-101 (RSGADALESALKELKRFIREWA) | greater cholesterol efflux |  | 
T-130: variant of peptide T-101 (RSGADALESPLKELKRFIREWT) |  | reduction of membrane ABCA1 levels | 
T-145: variant of peptide T-101 (RSGADALESGLKELKRFIREWT) | greater cholesterol efflux | reduction of membrane ABCA1 levels | 
T-144: variant of peptide T-101 (RSGADGLESALKELKRFIREWT) | greater cholesterol efflux |  | 
T-132: variant of peptide T-101 (RSGADALESALAELKRFIREWT) |  | reduction of membrane ABCA1 levels | 
